Experimental data reported in patent publication US7326772B2, “Peptide for assaying hERG channel binding” (Penta Biotech, Inc., priority 2005, dated 2008).
Where a name gives a salt, the structure may show the parent alone. Bridge positions count the residues as written; N and C are the ends. Peptide text beside a SMILES is read from it.

Legend:
hERG channel = target: T1, hERG channel (Homo sapiens, UniProt Q12809); test: Ki (average)
T1 construct: host or cells: HEK-293 (hERG/HEK-293 cell line, clone 16), membrane preparation
Source text: Table printed on a drawing sheet, FIG. 4
Title: Ki of BeKm-1 Analogs in Two Independent FlashBlue Competition Assays.
Head of the field: Ki (average)
First copying reader's note: The table is panel A of FIG. 4; panel B is a plot and is left out.

[1] = target: T2, hERG K+ channel membranes (hERG/HEK-293 cell line, clone 16) (Homo sapiens, UniProt Q12809); test: homogeneous [125I]-BeKm-1 FlashBlue competition assay; format: binding; conditions: [125I]-BeKm-1 at 0.17 nM; acetate and TFA salts; one hour at room temperature
T2 construct: host or cells: HEK-293 (hERG/HEK-293 cell line, clone 16), membrane preparation
Procedure: Acetate and TFA salts of (SeC)^7-BeKm-1 were tested in homogeneous [^125I]-BeKm-1 competition assays using FlashBlue GPCR beads and hERG K^+ channel membranes derived from Perkin Elmer's hERG/HEK-293 cell line (clone 16). […] Assays were run in buffer composed of 20 mM Hepes/Tris pH 7.2, 100 μM KCl, 0.5% BSA. 1.25 μg hERG K^+ channel membranes and 62.5 μg FlashBlue GPCR beads were added to each well of a 384-well white Optiplate. The total assay volume for each well was 40 μl. Plates were spun briefly after a one hour incubation at room temperature prior to signal detection with a TopCount apparatus.

T2 sequence (Q12809 whole entry): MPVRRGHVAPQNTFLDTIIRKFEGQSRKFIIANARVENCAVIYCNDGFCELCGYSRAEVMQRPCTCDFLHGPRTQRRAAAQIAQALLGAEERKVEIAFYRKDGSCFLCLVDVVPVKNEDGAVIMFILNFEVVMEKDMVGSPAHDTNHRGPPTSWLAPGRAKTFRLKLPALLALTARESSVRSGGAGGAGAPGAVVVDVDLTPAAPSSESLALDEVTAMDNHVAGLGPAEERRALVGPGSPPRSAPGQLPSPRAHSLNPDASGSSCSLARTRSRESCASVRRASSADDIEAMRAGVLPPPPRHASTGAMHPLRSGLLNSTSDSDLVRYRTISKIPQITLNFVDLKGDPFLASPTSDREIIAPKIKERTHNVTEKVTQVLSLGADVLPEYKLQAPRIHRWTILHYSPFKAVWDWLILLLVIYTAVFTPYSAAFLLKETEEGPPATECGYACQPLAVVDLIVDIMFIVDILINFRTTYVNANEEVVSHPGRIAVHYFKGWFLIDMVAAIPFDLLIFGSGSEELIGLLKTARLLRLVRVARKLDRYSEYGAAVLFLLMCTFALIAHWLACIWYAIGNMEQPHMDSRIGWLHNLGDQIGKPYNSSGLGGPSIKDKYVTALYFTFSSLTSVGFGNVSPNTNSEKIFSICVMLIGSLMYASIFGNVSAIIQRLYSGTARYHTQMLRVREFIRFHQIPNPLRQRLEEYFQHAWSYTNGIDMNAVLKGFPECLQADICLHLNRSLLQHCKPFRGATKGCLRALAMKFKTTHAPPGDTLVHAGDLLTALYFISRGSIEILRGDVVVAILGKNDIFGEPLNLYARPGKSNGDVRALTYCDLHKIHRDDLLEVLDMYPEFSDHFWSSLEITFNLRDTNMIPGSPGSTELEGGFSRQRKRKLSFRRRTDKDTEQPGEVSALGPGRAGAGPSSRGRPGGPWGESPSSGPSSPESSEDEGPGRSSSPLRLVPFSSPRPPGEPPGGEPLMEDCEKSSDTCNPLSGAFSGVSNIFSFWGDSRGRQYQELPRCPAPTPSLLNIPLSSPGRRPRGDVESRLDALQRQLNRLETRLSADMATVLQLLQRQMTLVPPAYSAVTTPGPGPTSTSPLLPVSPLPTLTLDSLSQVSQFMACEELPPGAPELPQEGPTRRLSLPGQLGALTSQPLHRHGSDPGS
T1 sequence (Q12809 whole entry, looked up): as the sequence (Q12809 whole entry) above

Compound | Ki (hERG channel) | affinity for the hERG channel (Ki, FIG. 4) [1]
CC[C@H](C)[C@H](NC(=O)[C@H](CC(=O)O)NC(=O)[C@@H](NC(=O)[C@@H]1CCCN1C(=O)[C@@H](N)CCCNC(=N)N)[C@@H](C)O)C(=O)N[C@@H](CCCCN)C(=O)N[C@H]1CSSC[C@@H]2NC(=O)[C@H](CCCNC(=N)N)NC(=O)CNC(=O)[C@H](CC(N)=O)NC(=O)[C@H]([C@@H](C)O)NC(=O)[C@H](CCCCN)NC(=O)CNC(=O)[C@H](Cc3ccccc3)NC(=O)[C@H](CCCNC(=N)N)NC(=O)[C@H](CO)NC(=O)[C@H](CCCCN)NC(=O)[C@@H]3CSSC[C@@H](C(=O)N[C@@H](Cc4ccccc4)C(=O)O)NC(=O)[C@H](CC(=O)O)NC(=O)[C@H](CSSC[C@H](NC(=O)[C@H](CCC(N)=O)NC(=O)[C@H](Cc4ccc(O)cc4)NC(=O)[C@H](CO)NC(=O)[C@H](CCC(=O)O)NC(=O)[C@H](CO)NC1=O)C(=O)N[C@@H](Cc1ccccc1)C(=O)N1CCC[C@H]1C(=O)N[C@@H](C(C)C)C(=O)N3)NC(=O)[C@H](Cc1ccccc1)NC(=O)CNC(=O)[C@H](CC(N)=O)NC(=O)[C@H](C(C)C)NC2=O [BeKm-1 TFA Salt] (H-RPTDIKCSESYQCFPVCKSRFGKTNGRCVNGFCDCF-OH; disulfide 7-28, 13-33, 17-35 (inferred)) | 0.35 nM | 
RPTDIKCSESYQCFPVCKSRFGKTNGRCVNGFCDCF [(SeC)^7-BeKm-1] |  | comparable to that of native BeKm-1
